A short description of one series: LogD. The class given is physicochemical. To be noted: pH 7.4. How it is done: (§1) ADME studies with 55152 (18-B3) and 367416 (16-G9): The solubility, microsome stability and plasma stability of these two compounds were also determined (Table 2).
The subject of another series is LAPC4 cells. The experiment in a line: LAPC4 cell proliferation, trypan blue exclusion assay. The class given is cell-based. The settings on record: Homo sapiens, 96 hr, viable cells by trypan blue exclusion. The source says: FIGS. 2A-2B show identification of 3 distinct types of inhibitors. […] In addition, the lysates were also subjected to by immunoblotting with […]-Cdc2 or actin antibodies (middle and bottom panels). […] The number vehicle treated cells were used as control and percent of surviving cells were plotted. […] The number of vehicle treated cells were used as control and percent of surviving cells were plotted. […] The number vehicle treated cells were used as control and percent of surviving cells were plotted. 7 of these epigenetic inhibitors in various assays such as cell proliferation assay, an in vitro kinase assay were performed and WEE1 autophosphorylation in vivo was determined. Prostate cancer derived LAPC4 cells were treated with inhibitors and its effect on cell proliferation was examined.

Another series deals with T1, Wee1 KD (Homo sapiens, UniProt P30291).
T1 construct: WEE1 & WEE2 (as control) kinase domains from mammalian cells (HEK293T cells) were purified
T1 sequence (P30291 299-569): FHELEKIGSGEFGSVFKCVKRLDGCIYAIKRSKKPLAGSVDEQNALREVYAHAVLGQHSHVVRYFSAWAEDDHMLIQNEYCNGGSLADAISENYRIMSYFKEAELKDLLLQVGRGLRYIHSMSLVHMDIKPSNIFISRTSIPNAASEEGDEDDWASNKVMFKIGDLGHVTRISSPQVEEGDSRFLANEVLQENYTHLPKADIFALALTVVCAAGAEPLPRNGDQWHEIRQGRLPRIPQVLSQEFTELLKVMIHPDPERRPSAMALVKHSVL
The experiment in a line: Differential Scanning Fluorimetry (DSF), Wee1 KD. The class given is binding. To be noted: kinase domain purified from HEK293T cells. How it is done:
Binding study of WEE1 epigenetic inhibitors: To identify the precise binding region/domain of WEE1 epigenetic inhibitors, WEE1 & WEE2 (as control) kinase domains from mammalian cells (HEK293T cells) were purified. The binding of inhibitors was assessed using Differential Scanning Fluorimetry (DSF).
On the technique in general: Differential scanning fluorimetry follows unfolding on heating by fluorescence.

Another series relates to 5hmC levels. Kind of series: 5-hmC slot blot of genomic DNA. The class given is cell-based. The settings on record: 10 uM, 16 hr. How it is done: WM66 cells (FIG. 5A) or primary melanocytes (FIG. 5B) were treated with vehicle or compounds (10 uM) for 16 hr. Total RNA was isolated followed by qRT-PCR with IDH2 and actin primers. FIG. 5C indicated cells were treated with vehicle or compounds (10 uM) for 16 hr. Total genomic DNA was isolated, slot-blotted onto a nitrocellulose membrane, followed by blotting with 5-hmC antibodies (top panels). Blots were also stained with methylene blue, to determine equal loading of DNA (bottom panel).
Identification of 55152 (18-B3) scaffold as a WEE1 epigenetic inhibitor: Two major hits, 367416 (16-G9) and 55152 (18-B3) were taken up for further characterization. […] Accordingly, melanoma cell line WM66 and primary melanocytes were treated with inhibitors and IDH2 mRNA levels were measure by real time PCR.

The nature of series [1]: Microsome Stability, Human. The class given is in vitro ADME. How it is done:
as §1

In another series the target is WEE1 (Homo sapiens, UniProt P30291). Kind of series: Endogenous WEE1 auto-phosphorylation in cells (WEE1 IP, pTyr immunoblot). The class given is cell-based. The settings on record: LNCaP cells, 10 μM overnight (FIG. 3B). How it is done: The reaction mix was then subjected to immunoprecipitated with WEE1 antibodies, followed by immunoblotting with pTyr antibodies (top panel). As a control, purified ACK1 protein was incubated in the reaction buffer containing ATP, in presence of 100 nM epigenetic inhibitors. The reaction mix was then subjected to immunoprecipitated with ACK1 antibodies, followed by immunoblotting with pTyr antibodies (bottom panel). […] In addition, the lysates were also subjected to immunoblotting with actin antibodies (bottom panel). […] In addition, the lysates were also subjected to immunoblotting with actin antibodies (bottom panel). […] In addition, the lysates were also subjected to immunoblotting with actin antibodies (bottom panel). To determine direct binding of these compounds causing WEE1 inhibition, a full length WEE1 kinase protein was incubated with the compounds. […] These inhibitors were further validated by assessing their ability to suppress endogenous WEEE activity; LNCaP cells were treated with 10 μM of these compounds overnight.
Sequence of WEE1 (P30291 whole entry): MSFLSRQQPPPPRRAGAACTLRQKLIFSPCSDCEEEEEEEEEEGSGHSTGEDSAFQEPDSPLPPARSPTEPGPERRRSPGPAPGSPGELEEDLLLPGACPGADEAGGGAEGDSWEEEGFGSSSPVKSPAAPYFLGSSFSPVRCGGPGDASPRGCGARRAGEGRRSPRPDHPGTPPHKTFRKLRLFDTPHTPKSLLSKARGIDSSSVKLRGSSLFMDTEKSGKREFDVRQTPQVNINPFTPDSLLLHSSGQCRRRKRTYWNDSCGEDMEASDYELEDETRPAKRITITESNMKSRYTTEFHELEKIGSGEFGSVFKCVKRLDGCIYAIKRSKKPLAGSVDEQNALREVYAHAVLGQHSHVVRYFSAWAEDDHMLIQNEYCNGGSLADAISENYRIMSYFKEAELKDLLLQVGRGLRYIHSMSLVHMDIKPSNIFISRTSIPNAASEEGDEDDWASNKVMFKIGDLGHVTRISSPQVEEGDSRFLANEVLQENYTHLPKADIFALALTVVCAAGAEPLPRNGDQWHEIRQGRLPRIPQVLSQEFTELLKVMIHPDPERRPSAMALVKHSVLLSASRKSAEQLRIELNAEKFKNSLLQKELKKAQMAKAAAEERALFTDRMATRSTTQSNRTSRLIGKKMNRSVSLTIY
For orientation: Immunoblotting shows a protein as a band on a membrane.

Series [2] is described as follows: Microsome Stability, Mouse. The class given is in vitro ADME. How it is done: as §1

pIC50: −log10 of the molar value.

Broadly, the logD is lipophilicity at a set pH, counting ionised and neutral species. A higher logD goes with higher lipophilicity. Usually pIC50 stands for −log10 of the IC50, conventionally taken in molar units. In “LogD”, `Nc1ccc(NC(=O)c2ccc(C(=O)Nc3ccc(N)cc3)cc2)cc1` [SG5-061, N^1,N^4-bis(4-aminophenyl)terephthalamide] registered a logD of 0.98. In the series with LAPC4 cells, the pIC50 is 6.00. Besides, the “ΔTm for Wee1 KD (° C.)” value came to 0.5 °C at Wee1 KD and 0.8 °C on Wee1 KD (listed as 55152 (18-B3)). Moreover, the 5hmC levels entry in the series with 5hmC levels was “Corresponding increase in 5hmC levels”. Besides, in series [1], the “Microsome Stability % remaining @ 1 hr Human” value is listed as 64.56%. Also, the WEE1 auto-phosphorylation result at WEE1 was “significant loss of WEE1 auto-phosphorylation”. Also, the “Microsome Stability % remaining @ 1 hr Mouse” value in series [2] turned out to be 95.21%.

For the origin of these results see patent publication US11987568B2, “Allosteric inhibitor of WEE1 kinase” (H. LEE MOFFITT CANCER CENTER AND RESEARCH INSTITUTE, INC., priority 2018, dated 2024).
